# Results from ChEMBL document CHEMBL5154747, “Discovery of new carbonic anhydrase IX inhibitors as anticancer agents by toning the hydrophobic and hydrophilic rims of the active site to encounter the dual-tail approach” (Eur J Med Chem, 2022).
# Key:
# [1] = tested on: NCI/ADR-RES; test: Anticancer activity against human NCI/ADR-RES cells assessed as cell growth inhibition incubated for 48 hrs by SRB assay; assay type: functional
# [2] = tested on: BT-549; test: Anticancer activity against human BT-549 cells assessed as cell growth inhibition incubated for 48 hrs by SRB assay; assay type: functional; conditions: read-out: LC50 (the source's name)
# [3] = tested on: RXF 393; test: Cytotoxicity against human RXF 393 cells assessed as inhibition of cell viability incubated for 72 hrs under hypoxia condition by MTT assay; assay type: functional, cell-based; conditions: RXF 393, 72 h
# [4] = tested on: 786-0; test: Anticancer activity against human 786-0 cells assessed as cell growth inhibition incubated for 48 hrs by SRB assay; assay type: functional
# [5] = tested on: NCI-H522; test: Anticancer activity against human NCI-H522 cells assessed as cell growth inhibition incubated for 48 hrs by SRB assay; assay type: functional; conditions: read-out: LC50 (the source's name)
# [6] = tested on: HCT-15; test: Anticancer activity against human HCT-15 cells assessed as cell growth inhibition incubated for 48 hrs by SRB assay; assay type: functional
# [7] = tested on: A498; test: Anticancer activity against human A498 cells assessed as cell growth inhibition incubated for 48 hrs by SRB assay; assay type: functional
# [8] = tested on: SR; test: Anticancer activity against human SR cells assessed as cell growth inhibition incubated for 48 hrs by SRB assay; assay type: functional; conditions: read-out: LC50 (the source's name)
# [9] = tested on: CCRF-CEM; test: Anticancer activity against human CCRF-CEM cells assessed as cell growth inhibition incubated for 48 hrs by SRB assay; assay type: functional
# [10] = tested on: UACC-62; test: Anticancer activity against human UACC-62 cells assessed as cell growth inhibition incubated for 48 hrs by SRB assay; assay type: functional
# [11] = tested on: A549; test: Anticancer activity against human A549 cells assessed as cell growth inhibition incubated for 48 hrs by SRB assay; assay type: functional
# [12] = tested on: U-251; test: Anticancer activity against human U-251 cells assessed as cell growth inhibition incubated for 48 hrs by SRB assay; assay type: functional
# [13] = tested on: SK-MEL-28; test: Anticancer activity against human SK-MEL-28 cells assessed as cell growth inhibition incubated for 48 hrs by SRB assay; assay type: functional; conditions: read-out: LC50 (the source's name)
# [14] = tested on: DU-145; test: Anticancer activity against human DU-145 cells assessed as cell growth inhibition incubated for 48 hrs by SRB assay; assay type: functional
# [15] = tested on: IGROV-1; test: Anticancer activity against human IGROV-1 cells assessed as cell growth inhibition incubated for 48 hrs by SRB assay; assay type: functional; conditions: read-out: LC50 (the source's name)
# [16] = tested on: OVCAR-3; test: Anticancer activity against human OVCAR-3 cells assessed as cell growth inhibition incubated for 48 hrs by SRB assay; assay type: functional
# [17] = tested on: MDA-MB-231; test: Anticancer activity against human MDA-MB-231 cells assessed as cell growth inhibition incubated for 48 hrs by SRB assay; assay type: functional
# [18] = tested on: UO-31; test: Anticancer activity against human UO-31 cells assessed as cell growth inhibition incubated for 48 hrs by SRB assay; assay type: functional; conditions: read-out: LC50 (the source's name)
# [19] = tested on: SNB-19; test: Anticancer activity against human SNB-19 cells assessed as cell growth inhibition incubated for 48 hrs by SRB assay; assay type: functional; conditions: read-out: LC50 (the source's name)
# [20] = tested on: TK-10; test: Anticancer activity against human TK-10 cells assessed as cell growth inhibition incubated for 48 hrs by SRB assay; assay type: functional; conditions: read-out: LC50 (the source's name)
# [21] = tested on: M14; test: Anticancer activity against human M14 cells assessed as cell growth inhibition incubated for 48 hrs by SRB assay; assay type: functional
# [22] = tested on: NCI-H460; test: Anticancer activity against human NCI-H460 cells assessed as cell growth inhibition incubated for 48 hrs by SRB assay; assay type: functional
# [23] = tested on: EKVX; test: Anticancer activity against human EKVX cells assessed as cell growth inhibition incubated for 48 hrs by SRB assay; assay type: functional; conditions: read-out: LC50 (the source's name)
# [24] = tested on: HCC 2998; test: Cytotoxicity against human HCC 2998 cells assessed as inhibition of cell viability incubated for 72 hrs under hypoxia condition by MTT assay; assay type: functional, cell-based; conditions: HCC 2998, 72 h
# [25] = tested on: ACHN; test: Anticancer activity against human ACHN cells assessed as cell growth inhibition incubated for 48 hrs by SRB assay; assay type: functional
# [26] = tested on: OVCAR-5; test: Anticancer activity against human OVCAR-5 cells assessed as cell growth inhibition incubated for 48 hrs by SRB assay; assay type: functional; conditions: read-out: LC50 (the source's name)
# [27] = tested on: PC-3; test: Anticancer activity against human PC-3 cells assessed as cell growth inhibition incubated for 48 hrs by SRB assay; assay type: functional; conditions: read-out: LC50 (the source's name)
# [28] = tested on: HOP-62; test: Anticancer activity against human HOP-62 cells assessed as cell growth inhibition incubated for 48 hrs by SRB assay; assay type: functional
# [29] = tested on: NCI-H322M; test: Anticancer activity against human NCI-H322M cells assessed as cell growth inhibition incubated for 48 hrs by SRB assay; assay type: functional; conditions: read-out: LC50 (the source's name)
# [30] = tested on: COLO 205; test: Anticancer activity against human COLO 205 cells assessed as cell growth inhibition incubated for 48 hrs by SRB assay; assay type: functional
# [31] = tested on: HCT-116; test: Anticancer activity against human HCT-116 cells assessed as cell growth inhibition incubated for 48 hrs by SRB assay; assay type: functional
# [32] = tested on: RPMI-8226; test: Anticancer activity against human RPMI-8226 cells assessed as cell growth inhibition incubated for 48 hrs by SRB assay; assay type: functional
# [33] = tested on: MDA-MB-468; test: Anticancer activity against human MDA-MB-468 cells assessed as cell growth inhibition incubated for 48 hrs by SRB assay; assay type: functional; conditions: read-out: LC50 (the source's name)
# [34] = tested on: MDA-MB-435; test: Anticancer activity against human MDA-MB-435 cells assessed as cell growth inhibition incubated for 48 hrs by SRB assay; assay type: functional
# [35] = tested on: RXF 393; test: Anticancer activity against human RXF 393 cells assessed as cell growth inhibition incubated for 48 hrs by SRB assay; assay type: functional; conditions: read-out: LC50 (the source's name)
# [36] = tested on: K562; test: Anticancer activity against human K562 cells assessed as cell growth inhibition incubated for 48 hrs by SRB assay; assay type: functional; conditions: read-out: LC50 (the source's name)
# [37] = tested on: NCI-H226; test: Anticancer activity against human NCI-H226 cells assessed as cell growth inhibition incubated for 48 hrs by SRB assay; assay type: functional; conditions: read-out: LC50 (the source's name)
# [38] = tested on: NCI-H23; test: Anticancer activity against human NCI-H23 cells assessed as cell growth inhibition incubated for 48 hrs by SRB assay; assay type: functional
# [39] = tested on: HL-60(TB); test: Anticancer activity against human HL-60(TB) cells assessed as cell growth inhibition incubated for 48 hrs by SRB assay; assay type: functional
# [40] = tested on: SK-MEL-2; test: Anticancer activity against human SK-MEL-2 cells assessed as cell growth inhibition incubated for 48 hrs by SRB assay; assay type: functional; conditions: read-out: LC50 (the source's name)
# [41] = tested on: HOP-92; test: Anticancer activity against human HOP-92 cells assessed as cell growth inhibition incubated for 48 hrs by SRB assay; assay type: functional; conditions: read-out: LC50 (the source's name)
# [42] = tested on: SK-MEL-5; test: Anticancer activity against human SK-MEL-5 cells assessed as cell growth inhibition incubated for 48 hrs by SRB assay; assay type: functional
# [43] = tested on: HCC 2998; test: Anticancer activity against human HCC 2998 cells assessed as cell growth inhibition incubated for 48 hrs by SRB assay; assay type: functional
# [44] = tested on: CAKI-1; test: Anticancer activity against human CAKI-1 cells assessed as cell growth inhibition incubated for 48 hrs by SRB assay; assay type: functional
# [45] = tested on: SW-620; test: Anticancer activity against human SW-620 cells assessed as cell growth inhibition incubated for 48 hrs by SRB assay; assay type: functional
# [46] = tested on: KM12; test: Anticancer activity against human KM12 cells assessed as cell growth inhibition incubated for 48 hrs by SRB assay; assay type: functional
# [47] = tested on: SF-295; test: Anticancer activity against human SF-295 cells assessed as cell growth inhibition incubated for 48 hrs by SRB assay; assay type: functional; conditions: read-out: LC50 (the source's name)
# [48] = tested on: SK-MEL-5; test: Cytotoxicity against human SK-MEL-5 cells assessed as inhibition of cell viability incubated for 72 hrs under hypoxia condition by MTT assay; assay type: functional, cell-based; conditions: SK-MEL-5, 72 h
# [49] = tested on: SN12C; test: Anticancer activity against human SN12C cells assessed as cell growth inhibition incubated for 48 hrs by SRB assay; assay type: functional
# [50] = tested on: MOLT-4; test: Anticancer activity against human MOLT-4 cells assessed as cell growth inhibition incubated for 48 hrs by SRB assay; assay type: functional
# [51] = tested on: MCF7; test: Anticancer activity against human MCF7 cells assessed as cell growth inhibition incubated for 48 hrs by SRB assay; assay type: functional
# [52] = tested on: SF-539; test: Anticancer activity against human SF-539 cells assessed as cell growth inhibition incubated for 48 hrs by SRB assay; assay type: functional
# [53] = tested on: Malme-3M; test: Anticancer activity against human Malme-3M cells assessed as cell growth inhibition incubated for 48 hrs by SRB assay; assay type: functional
# [54] = tested on: HT-29; test: Anticancer activity against human HT-29 cells assessed as cell growth inhibition incubated for 48 hrs by SRB assay; assay type: functional
# [55] = read-out: LC50 (the source's name)
smiles,measurement,setting,value
O=c1[nH]cc(F)c(=O)[nH]1 [FLUOROURACIL],GI50,[1],310 nM
same,CC50,[1]; [55],> 100000 nM
same,CC50,[2],> 100000 nM
same,IC50,[3],28200 nM
same,GI50,[4],720 nM
same,CC50,[4]; [55],> 100000 nM
same,CC50,[5],> 100000 nM
same,GI50,[6],110 nM
same,CC50,[6]; [55],> 100000 nM
same,GI50,[7],350 nM
same,CC50,[7]; [55],> 100000 nM
same,CC50,[8],> 100000 nM
same,GI50,[9],9970 nM
same,CC50,[9]; [55],> 100000 nM
same,GI50,[10],520 nM
same,GI50,[11],180 nM
same,GI50,[12],920 nM
same,CC50,[12]; [55],> 100000 nM
same,CC50,[13],> 100000 nM
same,GI50,[14],360 nM
same,CC50,[15],> 100000 nM
same,GI50,[16],10 nM
same,GI50,[17],6600 nM
same,CC50,[18],> 100000 nM
same,CC50,[19],> 100000 nM
same,CC50,[20],> 100000 nM
same,GI50,[21],980 nM
same,CC50,[21]; [55],> 100000 nM
same,GI50,[22],50 nM
same,CC50,[22]; [55],> 100000 nM
same,CC50,[23],> 100000 nM
same,IC50,[24],12600 nM
same,GI50,[25],270 nM
same,CC50,[25]; [55],> 100000 nM
same,CC50,[26],> 100000 nM
same,CC50,[27],> 100000 nM
same,GI50,[28],390 nM
same,CC50,[28]; [55],> 100000 nM
same,CC50,[29],> 100000 nM
same,GI50,[30],150 nM
same,CC50,[30]; [55],> 100000 nM
same,GI50,[31],220 nM
same,GI50,[32],40 nM
same,CC50,[33],> 100000 nM
same,GI50,[34],70 nM
same,CC50,[35],> 100000 nM
same,CC50,[36],> 100000 nM
same,CC50,[37],> 100000 nM
same,GI50,[38],330 nM
same,CC50,[38]; [55],> 100000 nM
same,GI50,[39],2300 nM
same,CC50,[39]; [55],> 100000 nM
same,CC50,[40],> 100000 nM
same,CC50,[41],> 100000 nM
same,GI50,[42],460 nM
same,GI50,[43],50 nM
same,CC50,[43]; [55],> 100000 nM
same,GI50,[44],70 nM
same,CC50,[44]; [55],> 100000 nM
same,GI50,[45],920 nM
same,CC50,[45]; [55],> 100000 nM
same,GI50,[46],210 nM
same,CC50,[46]; [55],> 100000 nM
same,CC50,[47],> 100000 nM
same,IC50,[48],15300 nM
same,GI50,[49],490 nM
same,GI50,[50],350 nM
same,CC50,[50]; [55],> 100000 nM
same,GI50,[51],70 nM
same,GI50,[52],60 nM
same,CC50,[52]; [55],> 100000 nM
same,GI50,[53],50 nM
same,CC50,[53]; [55],> 100000 nM
same,GI50,[54],170 nM
same,CC50,[54]; [55],> 100000 nM
